Common to all, as to assay type: cell-based
One experiment deals with 16-member SynCom. The experiment is described as follows: Targeted interventions in the SynCom (prebiotic metabolite or probiotic strain addition), metagenomics relative abundance. As to conditions: 7 days; for change in relative abundance in the community upon metabolite addition: SynCom in 0.1×R2A + metabolite, three concentrations; for relative abundance of primary targets (high TE for import protein) after metabolite addition / relative abundance of secondary targets (guild competitors) after metabolite addition: SynCom in 0.1×R2A + substrate vs 0.1×R2A control. As to the method:
Optical density readings at 600 nm (OD600), from isolates pre-cultures were taken with a Molecular Devices SpectraMax M3 Multi-Mode Microplate Reader (VWR, cat #89429-536). Precultures were diluted to a starting OD600 of 0.02 in 5 mL 0.1×R2A. The SynCom was assembled in large volumes to minimize pipetting error and maximize reproducibility. Briefly, 1 mL of each normalized culture (OD600=0.02) was diluted in a final volume of 250 mL 0.1×R2A and spread into 20 mL aliquots in Falcon tubes. Falcon tubes containing the SynCom inoculum were then incubated at 30° C. for 7 days, in aerobic conditions, in four biological replicates. After 7 days of culture, the SynCom samples were harvested by centrifugation and pellets were immediately treated for multi-omics analysis as detailed below (DNA-, RNA- and metaRibo-Seq).
For targeted modifications experiments carried out in the SynCom, the SynCom was assembled and cultured as described above, with modifications. Specific isolates were omitted from the SynCom assembly for the dropout experiments, as described in FIGS. 2d and 2e. Alternatively, concentrated stocks of either Burkholderia, Chitinophaga, Mucilaginibacter or Rhizobium were added as probiotics to the SynCom. Metabolites from concentrated, filter-sterilized stocks of the desired substrates were added to the medium for the prebiotics experiments. Modified SynCom were then incubated at 30° C. for 7 days, in aerobic conditions, in two biological replicates. After 7 days of culture, the modified SynCom samples were harvested by centrifugation and pellets were stored at −80° C. prior to metagenomics analysis.
DNA and RNA from SynCom samples were extracted from leftover lysates from metaRibo-Seq sample preparation, stored in Trizol at −80 C. DNA from soil samples was extracted using ZymoBIOMICS DNA miniprep kit (Zymo). DNA-Seq libraries were prepared using Nextera XT library preparation kit with 700 pg DNA input per sample and 6:30 min tagmentation at 55° C. and barcoded using Nextera XT indexes (Illumina). RNA was extracted using RNeasy mini kit (Qiagen), and rRNA was removed using QIAseq FastSelect-5S/16S/23S kit (Qiagen). RNA-Seq libraries were prepared using KAPA RNA HyperPrep kit (Roche) and barcoded using TruSeq indexes (Illumina). Amplification was followed in real time using SYBR-Green and stopped when reaching a plateau.
Adapter sequences were removed from multi-omics sequencing data using TrimGalore (Cutadapt version 1.18), and quality controlled using FastQC version 0.11.9 (Andrews et al. 2010). Trimmed reads were aligned to a custom SynCom database using bowtie2 version 2.3.2. Gene count tables were obtained using Woltka version 0.1.1 (Zhu et al. 2022). Multi-omics gene counts were normalized to reads per kilobase per million (RPKM).

The next experiment has as its system Rhizobium and Variovorax. In words: Pre-/probiotic intervention in natural soil, shotgun metagenomics relative abundance. As to conditions: for relative abundance of Burkholderia's competitors Rhizobium and Variovorax: soil+SynCom probiotic+prebiotic versus soil+SynCom probiotic (FIG. 6). On the procedure: (§1) A soil associated with switchgrass lowland reference genome clone (Missaoui, Boerma, and Bouton 2005) that was sampled from a field located in Texas, USA (28.3325, −98.1175) was used. Fifty gram (50 g) of soil was added to 250 mL of 0.1×R2A culture medium or 0.1×R2A+SynCom inoculum prepared as described above, and this volume was spread in 14 mL culture tubes (5 mL in each tube). 50-500 μL of concentrated, filter-sterilized stocks of the desired substrates and/or 20 μL of the SynCom isolate pure cultures diluted at an OD600 of 0.02 (i.e. approximately 8.10^5 CFU/mL) were then added. Soil samples were then grown at 30° C. for 7 days, in aerobic conditions, in two biological replicates (three replicates for reference soil sample). After 7 days of culture, the soil samples were harvested by centrifugation and pellets were stored at −80° C. prior to metagenomics analysis.
(§2) Soil samples from a switchgrass crop similar to the site from which the SynCom strains were originally isolated, were incubated in 33 different conditions: 0.1×R2A alone (soil control), with and without metabolite additions (prebiotic), and with and without individual SynCom members (probiotic, 8.10^5 CFU/mL), or the whole 16-member SynCom (probiotic consortium, 8.10^5 CFU/mL of each member) (see methods and FIG. 6). Changes in microbial community composition were analyzed by shotgun metagenomics.

In the next experiment the test system is Burkholderia. The description is as above. As to conditions: for Burkholderia's relative abundance: soil+SynCom probiotic+prebiotic versus soil+SynCom probiotic (FIG. 6).
Another experiment has as its system Mucilaginibacter. Described as above. As to conditions: natural soil in 0.1×R2A, 7 days. On the procedure:
as §1, §2

The next experiment concerns Chitinophaga. The description is as above. As to conditions: natural soil in 0.1×R2A, 7 days. As to the method:
as §1, §2

The test system of a further experiment is Paenibacillus. The experiment is described as above. As to conditions: natural soil in 0.1×R2A, 7 days. As to the method:
as §1, §2

[1] abbreviates: natural soil in 0.1×R2A, 7 days.

“Also recorded” adds a separate entry of the source.

In the case of `C/C1=C2/[N-][C@H]([C@H](CC(N)=O)[C@@]2(C)CCC(=O)NC[C@H](C)OP(=O)([O-])O[C@H]2[C@@H](O)[C@@H](n3cnc4cc(C)c(C)cc43)O[C@@H]2CO)[C@]2(C)N=C(/C(C)=C3N=C(/C=C4N=C1[C@@H](CCC(N)=O)C\4(C)C)[C@@H](CCC(N)=O)[C@]\3(C)CC(N)=O)[C@@H](CCC(N)=O)[C@]2(C)CC(N)=O.[Co+2]` (stereo in doubt) [cobalamin], the “change in relative abundance in the community upon metabolite addition” value (from here on “change in relative abundance”) in the experiment on 16-member SynCom was “did not induce any significant change”.

Take `N[C@@H](CSSC[C@H](N)C(=O)O)C(=O)O` [cystine]: the “change in relative abundance” value in the experiment with 16-member SynCom was “did not induce any significant change”.

Regarding `O=C(CO)[C@@H](O)[C@H](O)[C@H](O)CO` [fructose], in the experiment with Rhizobium and Variovorax (setting [1]), the “relative abundance of Burkholderia's competitors” value was “decrease of its closest competitors Rhizobium and Variovorax”. The “relative abundance of Burkholderia's competitors Rhizobium and Variovorax” value with Rhizobium and Variovorax was “decrease of its competitors Rhizobium and Variovorax”. Besides, the “Burkholderia relative abundance, fold change” value in the experiment with Burkholderia (setting [1]) is on record as 3.9 fold change. Moreover, in the experiment with Burkholderia, the “Burkholderia's relative abundance” value is “increase in Burkholderia's relative abundance”.

Turning to `N[C@@H](CCC(=O)N[C@@H](CS)C(=O)NCC(=O)O)C(=O)O` [glutathione], the “Mucilaginibacter relative abundance (in words)” value with Mucilaginibacter is “did not decrease Mucilaginibacter abundance”. Further, in the experiment on Chitinophaga, the “Chitinophaga relative abundance (in words)” value is on record as “did not increase Chitinophaga”. In the experiment with 16-member SynCom, the “relative abundance of primary targets (high TE for import protein) after metabolite addition” value (“relative abundance of primary targets” for short) is “specifically increased primary targets Burkholderia and Chitinophaga”; the “relative abundance of secondary targets (guild competitors) after metabolite addition” value (“relative abundance of secondary targets” below) is “decreasing their competitors Mucilaginibacter, and Bradyrhizobium”.

In the case of `CSCC[C@H](N)C(=O)O` [methionine], the “change in relative abundance” value in the experiment with 16-member SynCom was “did not induce any significant change”.

Regarding `NCCCCN` [putrescine], in the experiment on 16-member SynCom, the “relative abundance of primary targets” value is “specifically increased Paenibacillus and Rhodococcus”; the “relative abundance of secondary targets” value was “reducing competitors Rhizobium, Bradyrhizobium, and Mucilaginibacter”.

In the case of `O=C[C@H](O)[C@H](O)[C@H](O)CO` [ribose], the “Paenibacillus relative abundance, fold change” value with Paenibacillus worked out at 3.5 fold change. Further, the “relative abundance of Burkholderia's competitors Rhizobium and Variovorax” value in the experiment with Rhizobium and Variovorax is “decrease of its competitors Rhizobium and Variovorax”. Further, in the experiment with 16-member SynCom, the “relative abundance of primary targets” value is “specific increase of primary targets Paenibacillus and Burkholderia; also recorded: Paenibacillus (increased), Arthobacter and Brevibacillus (not increased)”; the “relative abundance of secondary targets” value was “specific decrease of Burkholderia's competitors Variovorax, Rhizobium, and Bradyrhizobium”. Also, the “Burkholderia's relative abundance” value in the experiment on Burkholderia is “increase in Burkholderia's relative abundance”.

`OC[C@H]1O[C@H](O[C@H]2O[C@H](CO)[C@@H](O)[C@H](O)[C@H]2O)[C@H](O)[C@@H](O)[C@@H]1O` [trehalose]: the “Paenibacillus relative abundance, fold change” value in the experiment on Paenibacillus worked out at 5.5 fold change.

For the origin of these results see patent US20250157571A1, “Methods, Apparatus, and Systems for Determining the Functional Microbial Niche and Identifying Interventions in Complex Hetergeneous Communities” (The Regents of the University of California, priority 2022, published 2025).
